Source: US9302999B2, “Substituted triazoles as herbicides” (E. I. DU PONT DE NEMOURS AND COMPANY, priority 2012, dated 2016)

Assays:
Format in all cases: in vivo
[1] = test system: blackgrass (Alopecurus myosuroides); test: Test C pre-/postemergence: blackgrass
Summary of the method: (§1)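 Preemergence on seeds in loam/sand, postemergence on 2–18 cm (1–4-leaf) plants in peat-based medium; compounds in non-phytotoxic solvent with surfactant. After 13–15 days in greenhouse, visual rating versus controls, 0 (no effect) to 100 (complete control).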

[2] = test system: ducksalad (Heteranthera limosa); test: Test B flooded paddy: ducksalad; conditions: Flood; 250 g ai/ha; applied to paddy water at 2-leaf stage; visually evaluated after 13 to 15 days
Summary of the method: (§2)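 Plants were grown to the 2-leaf stage, then pots were flooded to 3 cm above the soil and compounds were applied directly into the paddy water. Water depth was held for the whole test; after 13 to 15 days in a greenhouse, injury was visually rated against untreated controls (0 = no effect, 100 = complete control).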

[3] = test system: large crabgrass (Digitaria sanguinalis); test: Test C pre-/postemergence: large crabgrass
Summary of the method: as §1

corn (Zea mays) = test: Test C pre-/postemergence: corn
Summary of the method: as §1

[4] = test system: velvetleaf (Abutilon theophrasti); test: Test A pre-/postemergence: velvetleaf
Summary of the method: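 Plants in loam–sand blend were treated with test chemicals in non-phytotoxic solvent with surfactant, either as preemergence directed soil spray or postemergence at 2–10 cm, one- to two-leaf stage. After about ten days in greenhouse, injury was rated visually against untreated controls on a 0–100 scale (100 = complete control).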

[5] = test system: ryegrass, Italian (Italian ryegrass, Lolium multiflorum); test: Test C pre-/postemergence: ryegrass, Italian
Summary of the method: as §1

[6] = test system: winter wheat (Triticum aestivum); test: Test C pre-/postemergence: winter wheat
Summary of the method: as §1

[7] = test system: sedge, umbrella (small-flower umbrella sedge Cyperus difformis); test: Test B flooded paddy: sedge, umbrella; conditions: Flood; 250 g ai/ha; applied to paddy water at 2-leaf stage; visually evaluated after 13 to 15 days
Summary of the method: as §2

[8] = test system: chickweed (common chickweed, Stellaria media); test: Test C postemergence: chickweed
Summary of the method: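 Greenhouse pot test; foliar postemergence treatment at 1- to 4-leaf stage. Rated visually at 13 to 15 days on a 0–100 control scale relative to untreated plants.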

[9] = test system: barnyardgrass (Echinochloa crus-galli); test: Test B flooded paddy: barnyardgrass; conditions: Flood; 250 g ai/ha; applied to paddy water at 2-leaf stage; visually evaluated after 13 to 15 days
Summary of the method: as §2

[10] = test system: morningglory (Ipomoea coccinea); test: Test C pre-/postemergence: morningglory
Summary of the method: as §1

[11] = Postemergence, 31 g ai/ha, scale 0 to 100 (0 no effect, 100 complete control)
[12] = Postemergence, 62 g ai/ha, scale 0 to 100 (0 no effect, 100 complete control)
[13] = Postemergence, 125 g ai/ha, scale 0 to 100, 0 no effect, 100 complete control
[14] = Postemergence, 250 g ai/ha, scale 0 to 100
[15] = Preemergence, 31 g ai/ha, scale of 0 to 100, 0 is no effect, 100 is complete control
[16] = Preemergence, 62 g ai/ha, scale 0 to 100, 0 no effect, 100 complete control
[17] = Preemergence, 125 g ai/ha, scale 0 to 100, 0 no effect, 100 complete control
[18] = Preemergence, 250 g ai/ha, scale 0 to 100, 0 no effect, 100 complete control
[19] = Preemergence, 62 g ai/ha, scale of 0 to 100, 0 is no effect, 100 is complete control
[20] = Postemergence, 125 g ai/ha, 0 to 100 scale, 0 is no effect, 100 is complete control
[21] = Postemergence, 500 g ai/ha, visual rating on 0 to 100 scale (0 no effect, 100 complete control), approximately ten days
[22] = Preemergence, 125 g ai/ha, 0 to 100 scale (0 no effect, 100 complete control)
[23] = Preemergence, 500 g ai/ha, 0 to 100 scale, 0 is no effect, 100 is complete control
[24] = 31 g ai/ha, scale 0 to 100 (0 no effect, 100 complete control)
[25] = 62 g ai/ha, scale 0 to 100 (0 no effect, 100 complete control)
[26] = 125 g ai/ha, scale 0 to 100, 0 no effect, 100 complete control

In the case of FC(F)Oc1nn(-c2ccc(C(F)(F)F)cc2)nc1Cc1ccnc(C(F)(F)F)c1 [Compound 26], the “Plant response rating, Blackgrass” value [1, 11] is reported as 30, the “Plant response rating, Blackgrass” value [1, 12] is reported as 35 and the “Plant response rating, Blackgrass” value [1, 13] is reported as 70. For the same compound, the “Plant response rating, Blackgrass” value [1, 14] was 90, the “Plant response rating, Blackgrass” value [1, 15] was 55 and the “Plant response rating, Blackgrass” value [1, 16] was 90. The “Plant response rating, Blackgrass” value [1, 17] was 90, the “Plant response rating, Blackgrass” value [1, 18] was 90 and the “Plant response rating, Ducksalad (0 to 100 scale, 0 is no effect, 100 is complete control)” value [2] was 40. The “Plant response rating, Crabgrass, Large” value [3, 11] was 20, the “Plant response rating, Crabgrass, Large” value [3, 12] was 30 and the “Plant response rating, Crabgrass, Large” value [3, 13] was 40. The “Plant response rating, Crabgrass, Large” value [3, 14] was 40, the “Plant response rating, Crabgrass, Large” value [3, 15] was 98 and the “Plant response rating, Crabgrass, Large” value [3, 19] was 98. The “Plant response rating, Crabgrass, Large” value [3, 17] was 100, the “Plant response rating, Crabgrass, Large” value [3, 18] was 100 and the “Plant response rating, Corn” value (corn (Zea mays); [11]) was 20. For the same compound, the “Plant response rating, Corn” value (corn (Zea mays); [12]) was 20, the “Plant response rating, Corn” value (corn (Zea mays); [13]) was 20 and the “Plant response rating, Corn” value (corn (Zea mays); [14]) was 25. The “Plant response rating, Corn” value (corn (Zea mays); [15]) was 0, the “Plant response rating, Corn” value (corn (Zea mays); [16]) was 5 and the “Plant response rating, Corn” value (corn (Zea mays); [17]) was 5. The “Plant response rating, Corn” value (corn (Zea mays); [18]) was 5, the “Velvetleaf plant response rating” value [4, 20] was 100 and the “Velvetleaf plant response rating” value [4, 21] was 100. For the same compound, the “Plant response rating, Velvetleaf” value [4, 22] was 80, the “Plant response rating, Velvetleaf” value [4, 23] was 90 and the “Plant response rating, Ryegrass, Italian” value [5, 11] was 10. For the same compound, the “Plant response rating, Ryegrass, Italian” value [5, 12] was 20, the “Plant response rating, Ryegrass, Italian” value [5, 13] was 30 and the “Plant response rating, Ryegrass, Italian” value [5, 14] was 35. The “Plant response rating, Ryegrass, Italian” value [5, 15] was 10, the “Plant response rating, Ryegrass, Italian” value [5, 19] was 60 and the “Plant response rating, Ryegrass, Italian” value [5, 17] was 60. For the same compound, the “Plant response rating, Ryegrass, Italian” value [5, 18] was 80, the “Plant response rating, Wheat” value [6, 11] was 10 and the “Plant response rating, Wheat” value [6, 12] was 20. The “Plant response rating, Wheat” value [6, 13] was 30, the “Plant response rating, Wheat” value [6, 14] was 35 and the “Plant response rating, Wheat” value [6, 15] was 0. The “Plant response rating, Wheat” value [6, 19] was 5, the “Plant response rating, Wheat” value [6, 17] was 30 and the “Plant response rating, Wheat” value [6, 18] was 30. For the same compound, the “Plant response rating, Sedge, Umbrella (0 to 100 scale, 0 is no effect, 100 is complete control)” value [7] was 90, the “Plant response rating, Chickweed” value [8, 24] was 40 and the “Plant response rating, Chickweed” value [8, 25] was 98. The “Plant response rating, Chickweed” value [8, 26] was 100, the “Plant response rating, Chickweed” value ([8]; 250 g ai/ha, scale 0 to 100) was 100 and the “Plant response rating, Barnyardgrass (0 to 100 scale, 0 is no effect, 100 is complete control)” value [9] was 60.
With FC(F)(F)c1ccc(-n2nc(Cl)c(Cc3ccnc(C(F)(F)F)c3)n2)cc1 [Compound 28] the “Plant response rating, Blackgrass” value [1, 11] was 10, the “Plant response rating, Blackgrass” value [1, 12] was 10 and the “Plant response rating, Blackgrass” value [1, 13] was 55. The “Plant response rating, Blackgrass” value [1, 14] was 60, the “Plant response rating, Ducksalad (0 to 100 scale, 0 is no effect, 100 is complete control)” value [2] was 95 and the “Plant response rating, Crabgrass, Large” value [3, 11] was 10. For the same compound, the “Plant response rating, Crabgrass, Large” value [3, 12] was 15, the “Plant response rating, Crabgrass, Large” value [3, 13] was 20 and the “Plant response rating, Crabgrass, Large” value [3, 14] was 25. The “Plant response rating, Corn” value (corn (Zea mays); [11]) was 15, the “Plant response rating, Corn” value (corn (Zea mays); [12]) was 20 and the “Plant response rating, Corn” value (corn (Zea mays); [13]) was 25. For the same compound, the “Plant response rating, Corn” value (corn (Zea mays); [14]) was 25, the “Velvetleaf plant response rating” value [4, 20] was 80 and the “Velvetleaf plant response rating” value [4, 21] was 100. For the same compound, the “Plant response rating, Velvetleaf” value [4, 22] was 20, the “Plant response rating, Velvetleaf” value [4, 23] was 80 and the “Plant response rating, Ryegrass, Italian” value [5, 11] was 10. For the same compound, the “Plant response rating, Ryegrass, Italian” value [5, 12] was 25, the “Plant response rating, Ryegrass, Italian” value [5, 13] was 25 and the “Plant response rating, Ryegrass, Italian” value [5, 14] was 30. For the same compound, the “Plant response rating, Wheat” value [6, 11] was 5, the “Plant response rating, Wheat” value [6, 12] was 10 and the “Plant response rating, Wheat” value [6, 13] was 10. For the same compound, the “Plant response rating, Wheat” value [6, 14] was 20, the “Plant response rating, Sedge, Umbrella (0 to 100 scale, 0 is no effect, 100 is complete control)” value [7] was 95 and the “Plant response rating, Chickweed” value [8, 24] was 30. For the same compound, the “Plant response rating, Chickweed” value [8, 25] was 55, the “Plant response rating, Chickweed” value [8, 26] was 95 and the “Plant response rating, Chickweed” value ([8]; 250 g ai/ha, scale 0 to 100) was 100. The “Plant response rating, Barnyardgrass (0 to 100 scale, 0 is no effect, 100 is complete control)” value [9] was 90.
With COc1nn(-c2ccc(C(F)(F)F)cc2)nc1Cc1ccnc(C(F)F)c1 [Compound 138] the “Plant response rating, Blackgrass” value [1, 11] was 20, the “Plant response rating, Blackgrass” value [1, 12] was 40 and the “Plant response rating, Blackgrass” value [1, 13] was 40. For the same compound, the “Plant response rating, Blackgrass” value [1, 14] was 45, the “Plant response rating, Blackgrass” value [1, 15] was 90 and the “Plant response rating, Blackgrass” value [1, 19] was 95. The “Plant response rating, Blackgrass” value [1, 17] was 95, the “Plant response rating, Blackgrass” value [1, 18] was 95 and the “Plant response rating, Ducksalad (0 to 100 scale, 0 is no effect, 100 is complete control)” value [2] was 90. For the same compound, the “Plant response rating, Crabgrass, Large” value [3, 11] was 45, the “Plant response rating, Crabgrass, Large” value [3, 12] was 50 and the “Plant response rating, Crabgrass, Large” value [3, 13] was 55. For the same compound, the “Plant response rating, Crabgrass, Large” value [3, 14] was 95, the “Plant response rating, Crabgrass, Large” value [3, 15] was 98 and the “Plant response rating, Crabgrass, Large” value [3, 19] was 100. The “Plant response rating, Crabgrass, Large” value [3, 17] was 100, the “Plant response rating, Crabgrass, Large” value [3, 18] was 100 and the “Plant response rating, Corn” value (corn (Zea mays); [15]) was 20. The “Plant response rating, Corn” value (corn (Zea mays); [19]) was 30, the “Plant response rating, Corn” value (corn (Zea mays); [17]) was 40 and the “Plant response rating, Corn” value (corn (Zea mays); [18]) was 55. The “Plant response rating, Morningglory” value [10, 11] was 90, the “Plant response rating, Morningglory” value [10, 12] was 90 and the “Plant response rating, Morningglory” value [10, 13] was 98. For the same compound, the “Plant response rating, Morningglory” value [10, 14] was 98, the “Plant response rating, Morningglory” value [10, 15] was 15 and the “Plant response rating, Morningglory” value [10, 19] was 55. For the same compound, the “Plant response rating, Morningglory” value [10, 17] was 65, the “Plant response rating, Morningglory” value [10, 18] was 98 and the “Plant response rating, Velvetleaf” value [4, 20] was 100. For the same compound, the “Velvetleaf plant response rating” value [4, 21] was 100, the “Plant response rating, Velvetleaf” value ([4]; Preemergence, 125 g ai/ha, 0 to 100 scale where 0 is no effect and 100 is complete control) was 70 and the “Plant response rating, Velvetleaf” value ([4]; Preemergence, 500 g ai/ha, 0 to 100 scale (0 no effect, 100 complete control)) was 100. The “Plant response rating, Ryegrass, Italian” value [5, 11] was 40, the “Plant response rating, Ryegrass, Italian” value [5, 12] was 55 and the “Plant response rating, Ryegrass, Italian” value [5, 13] was 60. The “Plant response rating, Ryegrass, Italian” value [5, 14] was 75, the “Plant response rating, Ryegrass, Italian” value [5, 15] was 10 and the “Plant response rating, Ryegrass, Italian” value [5, 19] was 40. For the same compound, the “Plant response rating, Ryegrass, Italian” value [5, 17] was 70, the “Plant response rating, Ryegrass, Italian” value [5, 18] was 90 and the “Plant response rating, Wheat” value [6, 11] was 10. The “Plant response rating, Wheat” value [6, 12] was 10, the “Plant response rating, Wheat” value [6, 13] was 35 and the “Plant response rating, Wheat” value [6, 14] was 35. The “Plant response rating, Wheat” value [6, 19] was 5, the “Plant response rating, Wheat” value [6, 17] was 10 and the “Plant response rating, Wheat” value [6, 18] was 50. For the same compound, the “Plant response rating, Sedge, Umbrella (0 to 100 scale, 0 is no effect, 100 is complete control)” value [7] was 90, the “Plant response rating, Chickweed” value [8, 25] was 80 and the “Plant response rating, Chickweed” value [8, 26] was 95. The “Plant response rating, Chickweed” value ([8]; 250 g ai/ha, scale 0 to 100) was 98 and the “Plant response rating, Barnyardgrass (0 to 100 scale, 0 is no effect, 100 is complete control)” value [9] was 80.
